Test system: 2nd sensory neuron in the trigeminal nucleus caudalis (TNC)
Assay: rat model of migraine: sensitization induced by inflammatory soup applied to the dura, monitored by electrophysiology in the TNC
Type: in vivo
Conditions: eletriptan given 3 hours after inflammatory soup on the dura; observed as late as 5.5 hours after sensitization

**Q.** How did the “reversal of sensitization of responses to sensory stimuli (brush and pin)” value turn out when `CN1CCC[C@@H]1Cc1c[nH]c2ccc(CCS(=O)(=O)c3ccccc3)cc12` [eletriptan] was run?
**A.** Its value is “did not reverse the sensitization”.
